# Measurements: patent publication US9938276B2, “6,5-bicyclic octahydropyrrolopyridine orexin receptor antagonists” (Merck Sharp & Dohme Corp., priority 2014, dated 2018)
# Key:
# human orexin-2 receptor = human orexin-2 receptor (Homo sapiens (Human), UniProt O43614); assay: hOX2R FLIPR Ca2+ flux assay; format: cell-based; conditions: CHO cells expressing the receptor; agonist 70 pM Ala-6,12 human orexin-A
# Description: In a typical experiment the OX1 and OX2 receptor antagonistic activity of the compounds of the present invention was determined in accordance with the following experimental method. For intracellular calcium measurements, Chinese hamster ovary (CHO) cells expressing the rat orexin-1 receptor or the human orexin-2 receptor, are grown in Iscove's modified DMEM containing 2 mM L-glutamine, […], 1% hypoxanthine-thymidine supplement, 100 U/ml penicillin, 100 μg/ml streptomycin and 10% heat-inactivated fetal calf serum (FCS). The cells are seeded at 20,000 cells/well into Becton-Dickinson black 384-well clear bottom sterile plates coated with poly-D-lysine. All reagents were from GIBCO-Invitrogen Corp. The seeded plates are incubated overnight at 37° C. and 5% CO2. Ala-6,12 human orexin-A as the agonist is prepared as a 1 mM stock solution in 1% bovine serum albumin (BSA) and diluted in assay buffer (HBSS containing 20 mM HEPES, 0.1% BSA and 2.5 mM probenecid, pH7.4) for use in the assay at a final concentration of 70 pM. Test compounds are prepared as 10 mM stock solution in DMSO, then diluted in 384-well plates, first in DMSO, then assay buffer. On the day of the assay, cells are washed 3 times with 100 μl assay buffer and then incubated for 60 min (37° C., 5% CO2) in 60 μl assay buffer containing 1 μM Fluo-4AM ester, 0.02% pluronic acid, and 1% BSA. The dye loading solution is then aspirated and cells are washed 3 times with 100 μl assay buffer. 30 μl of that same buffer is left in each well. Within the Fluorescent Imaging Plate Reader (FLIPR, Molecular Devices), test compounds are added to the plate in a volume of 25 μl, incubated for 5 min and finally 25 μl of agonist is added. Fluorescence is measured for each well at 1 second intervals for 5 minutes and the height of each fluorescence peak is compared to the height of the fluorescence peak induced by 70 pM Ala-6,12 orexin-A with buffer in place of antagonist. […] Alternatively, compound potency can be assessed by a radioligand binding assay (described in Bergman et. al. Bioorg. Med. Chem. Lett. 2008, 18, 1425-1430) in which the inhibition constant (Ki) is determined in membranes prepared from CHO cells expressing either the OX1 or OX2 receptor. The intrinsic orexin receptor antagonist activity of a compound which may be used in the present invention may be determined by these assays.
# hOX1R = hOX1R (Homo sapiens, UniProt O43613); assay: hOX1R FLIPR Ca2+ flux assay; format: cell-based; conditions: CHO cells expressing the receptor; agonist 70 pM Ala-6,12 human orexin-A
# Chain of human orexin-2 receptor (O43614 whole entry): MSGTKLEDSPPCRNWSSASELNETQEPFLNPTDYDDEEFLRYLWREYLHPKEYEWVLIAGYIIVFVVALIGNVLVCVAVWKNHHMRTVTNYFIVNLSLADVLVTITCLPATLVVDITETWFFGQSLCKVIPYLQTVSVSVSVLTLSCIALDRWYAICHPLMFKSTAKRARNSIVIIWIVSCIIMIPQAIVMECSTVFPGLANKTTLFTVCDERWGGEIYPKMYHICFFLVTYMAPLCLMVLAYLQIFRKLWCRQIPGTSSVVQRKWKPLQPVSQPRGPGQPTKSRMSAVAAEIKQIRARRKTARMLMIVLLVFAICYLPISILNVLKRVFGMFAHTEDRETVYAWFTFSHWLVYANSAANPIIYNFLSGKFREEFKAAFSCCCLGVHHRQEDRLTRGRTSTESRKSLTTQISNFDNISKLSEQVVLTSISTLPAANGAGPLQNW
Compound,IC50 (human orexin-2 receptor),IC50 (hOX1R)
"N#Cc1ccnc(N2CC[C@@H]3CCN(C(=O)c4cccnc4OCC(F)(F)F)C[C@@H]32)c1 [Example E7, 2-[(3aR, 7aR)-6-{[2-(2,2,2-trifluoroethoxy)pyridin-3-yl]carbonyl}octahydro-1H-pyrrolo[2,3-c]pyridin-1-yl]pyridine-4-carbonitrile]",0.122 µM,10 µM
"CC(C)(O)c1cnc(N2CC[C@@H]3CCN(C(=O)c4ccccc4-n4nccn4)C[C@@H]32)nc1 [Example C6, 2-{2-[(3aR, 7aR)-6-{[2-(2H-1,2,3-triazol-2-yl)phenyl]carbonyl}octahydro-1H-pyrrolo[2,3-c]pyridin-1-yl]pyrimidin-5-yl}propan-2-ol]",1.83 µM,10 µM
CC(C)(O)c1csc(N2CC[C@H]3CCN(C(=O)c4ccccc4-n4nccn4)C[C@@H]32)n1 [Example C1],0.202 µM,10 µM
"CCOc1ncccc1C(=O)N1CC[C@H]2CCN(c3cc(C#N)ccn3)[C@H]2C1 [Example E6, 2-{(3aR, 7aR)-6-[(2-ethoxypyridin-3-yl)carbonyl]octahydro-1H-pyrrolo[2,3-c]pyridin-1-yl}pyridine-4-carbonitrile]",1.15 µM,10 µM
"COc1cc(OC)nc(N2CC[C@@H]3CCN(C(=O)c4ccccc4-n4nccn4)C[C@@H]32)n1 [Example A5, (2-(2H-1,2,3-triazol-2-yl)phenyl)((3aR, 7aR)-1-(4,6-dimethoxypyrimidin-2-yl)hexahydro-1H-pyrrolo[2,3-c]pyridin-6(2H)-yl)methanone]",2.1 µM,10 µM
"CCCc1ccccc1C(=O)N1CC[C@H]2CCN(c3cc(C#N)ccn3)[C@H]2C1 [Example E2, 2-((3aR, 7aR)-6-(2-propylbenzoyl)octahydro-1H-pyrrolo[2,3-c]pyridin-1-yl)isonicotinonitrile]",0.0594 µM,10 µM
"N#Cc1ccnc(N2CC[C@H]3CCN(C(=O)c4ccccc4OC(F)(F)F)C[C@H]32)c1 (stereo in doubt) [Example D3, 2-((3aS, 7aS)-6-(2-(trifluoromethoxy)benzoyl)octahydro-1H-pyrrolo[2,3-c]pyridin-1-yl)isonicotinonitrile]",0.0791 µM,10 µM
"N#Cc1ccnc(N2CC[C@@H]3CCN(C(=O)c4ccccc4-n4nccn4)C[C@@H]32)c1Cl [Example A19, 3-chloro-2-[(3aR, 7aR)-6-{[2-(2H-1,2,3-triazol-2-yl)phenyl]carbonyl}octahydro-1H-pyrrolo[2,3-c]pyridin-1-yl]pyridine-4-carbonitrile]",0.0955 µM,≥ 10 µM
"O=C(c1ccccc1-n1nccn1)N1CC[C@H]2CCN(c3ccc(-n4ccnc4)nn3)[C@H]2C1 [Example A10, (3aR, 7aR)-(1-(6-(1H-imidazol-1-yl)pyridazin-3-yl)hexahydro-1H-pyrrolo[2,3-c]pyridin-6(2H)-yl)(2-(2H-1,2,3-triazol-2-yl)phenyl)methanone]",10 µM,10 µM
"CN(C)c1ccnc(N2CC[C@@H]3CCN(C(=O)c4ccccc4-n4nccn4)C[C@@H]32)c1C#N [Example A17, 4-(dimethylamino)-2-[(3aR, 7aR)-6-{[2-(2H-1,2,3-triazol-2-yl)phenyl]carbonyl}octahydro-1H-pyrrolo[2,3-c]pyridin-1-yl]pyridine-3-carbonitrile]",0.0698 µM,≥ 10 µM
"Cc1c(C#N)ccnc1N1CC[C@@H]2CCN(C(=O)c3ccccc3-n3nccn3)C[C@@H]21 [Example A15, 2-(cis-6-(2-(2H-1,2,3-triazol-2-yl)benzoyl)ocathydro-1H-pyrrolo[2,3-c]pyridin-1-yl)-3-methylisonicotinonitrile]",0.0848 µM,≥ 10 µM
"COC(=O)c1nc(N2CC[C@H]3CCN(C(=O)c4ccccc4-n4nccn4)C[C@H]32)sc1C (stereo in doubt) [Example B12, methyl 2-((3aR, 7aS)-6-(2-(2H-1,2,3-triazol-2-yl)benzoyl)octahydro-1H-pyrrolo[2,3-c]pyridin-1-yl)-5-methylthiazole-4-carboxylate]",1.34 µM,10 µM
"O=C(c1ccccc1-n1nccn1)N1CC[C@H]2CCN(c3nccc4ncccc34)[C@H]2C1 [Example B8, 5-[(3aR, 7aR)-6-{[2-(2H-1,2,3-triazol-2-yl)phenyl]carbonyl}octahydro-1H-pyrrolo[2,3-c]pyridin-1-yl]-1,6-naphthyridine]",2.52 µM,10 µM
"O=C(c1ccccc1-n1nccn1)N1CC[C@H]2CCN(c3nccc4ccccc34)[C@H]2C1 [Example B9, (2-(2H-1,2,3-triazol-2-yl)phenyl)((3aR, 7aR)-1-(isoquinolin-1-yl)hexahydro-1H-pyrrolo[2,3-c]pyridin-6(2H)-yl)methanone]",0.0408 µM,1.66 µM
"N#Cc1cc(N2CC[C@@H]3CCN(C(=O)c4ccccc4-n4nccn4)C[C@@H]32)ncc1F [Example B5, 5-fluoro-2-[(3aR, 7aR)-6-{[2-(2H-1,2,3-triazol-2-yl)phenyl]carbonyl}octahydro-1H-pyrrolo[2,3-c]pyridin-1-yl]pyridine-4-carbonitrile]",4.72 µM,≥ 10 µM
"Cc1ncc(N2CC[C@@H]3CCN(C(=O)c4ccccc4-n4nccn4)C[C@@H]32)nc1C [Example B21, (3aR, 7aR)-1-(5,6-dimethylpyrazin-2-yl)-6-{[2-(2H-1,2,3-triazol-2-yl)phenyl]carbonyl}octahydro-1H-pyrrolo[2,3-c]pyridine]",0.948 µM,10 µM
"O=C(c1ccccc1-n1nccn1)N1CC[C@H]2CCN(c3ncnc4[nH]ccc34)[C@H]2C1 [Example B7, (3aR, 7aR)-(2-(2H-1,2,3-triazol-2-yl)phenyl)(1-(7H-pyrrolo[2,3-d]pyrimidin-4-yl)hexahydro-1H-pyrrolo[2,3-c]pyridin-6(2H)-yl)methanone]",10 µM,10 µM
"O=C(c1ccccc1-n1nccn1)N1CC[C@H]2CCN(c3ncnc4sccc34)[C@H]2C1 [Example B15, (2-(2H-1,2,3-triazol-2-yl)phenyl)((3aR, 7aR)-1-(thieno[2,3-d]pyrimidin-4-yl)hexahydro-1H-pyrrolo[2,3-c]pyridin-6(2H)-yl)methanone]",≥ 10 µM,≥ 10 µM
"Cc1ccnc(N2CC[C@@H]3CCN(C(=O)c4ccccc4-n4nccn4)C[C@@H]32)c1 [Example B1, (2-(2H-1,2,3-triazol-2-yl)phenyl)((3aR,7aR)-1-(4-methylpyridin-2-yl)hexahydro-1H-pyrrolo[2,3-c]pyridin-6(2H)-yl)methanone]",0.902 µM,≥ 10 µM
"CC(O)(c1cncc(N2CC[C@@H]3CCN(C(=O)c4ccccc4-n4nccn4)C[C@@H]32)n1)C(F)(F)F (stereo partly drawn) [Example C3, 1,1,1-trifluoro-2-{6-[(3aR, 7aR)-6-{[2-(2H-1,2,3-triazol-2-yl)phenyl]carbonyl}octahydro-1H-pyrrolo[2,3-c]pyridin-1-yl]pyrazin-2-yl}propan-2-ol]",3.34 µM,≥ 10 µM
"CC(C)Oc1ncccc1C(=O)N1CC[C@H]2CCN(c3cc(C#N)ccn3)[C@H]2C1 [Example E19, 2-[(3aR, 7aR)-6-{[2-(1-methylethoxy)pyridin-3-yl]carbonyl}octahydro-1H-pyrrolo[2,3-c]pyridin-1-yl]pyridine-4-carbonitrile]",1.4 µM,10 µM
CC(C)(O)c1coc(N2CC[C@@H]3CCN(C(=O)c4ccccc4-n4nccn4)C[C@@H]32)n1 [Example C2],0.342 µM,10 µM
"N#Cc1cccc(N2CC[C@@H]3CCN(C(=O)c4ccccc4-n4nccn4)C[C@@H]32)c1 [Example B6, 3-((3aR, 7aR)-6-(2-(2H-1,2,3-triazol-2-yl)benzoyl)octahydro-1H-pyrrolo[2,3-c]pyridin-1-yl)benzonitrile]",1.73 µM,≥ 10 µM
"Cc1cncc(N2CC[C@@H]3CCN(C(=O)c4ccccc4-n4nccn4)C[C@@H]32)n1 [Example B20, (3aR, 7aR)-1-(6-methylpyrazin-2-yl)-6-{[2-(2H-1,2,3-triazol-2-yl)phenyl]carbonyl}octahydro-1H-pyrrolo[2,3-c]pyridine]",2.08 µM,≥ 10 µM
"N#Cc1ccnc(N2CC[C@@H]3CCN(C(=O)c4ccccc4-n4cccn4)C[C@@H]32)c1 [Example E14, 2-[(3aR, 7aR)-6-{[2-(1H-pyrazol-1-yl)phenyl]carbonyl}octahydro-1H-pyrrolo[2,3-c]pyridin-1-yl]pyridine-4-carbonitrile]",0.256 µM,10 µM
